Results published in patent US12290521B2, “Methods and materials for identifying and treating BET inhibitor-resistant cancers” (Mayo Foundation for Medical Education and Research, priority 2018, dated 2025).
Entries after “also recorded” stand apart in the source; their conditions may differ.

Test system: C4-2 cells
Test: Western blot and RT-qPCR of protein and mRNA expression in C4-2 cells
Format: cell-based, human
Protocol: Cell lysates or immunoprecipitates were subjected to SDS-PAGE, and proteins were transferred to nitrocellulose membranes (GE Healthcare Sciences). The membranes were blocked in Tris-buffered saline (TBS, pH 7.4) containing 5% non-fat milk and 0.1% Tween-20, washed twice in TBS containing 0.1% Tween-20, and incubated with primary antibody overnight at 4° C., followed by secondary antibody for 1 hour at room temperature. The proteins of interest were visualized using ECL chemiluminescence system (Santa Cruz Biotechnology). Densitometry analysis of protein bands was analyzed on the Gel-Pro Analyzer software.
Total RNA was isolated from transiently transfected cells using the Trizol reagent (Thermo Fisher Scientific), and cDNA was reverse-transcribed using the Superscript RT kit (TOYOBO, Japan) according to the manufacturer's instructions. PCR amplification was performed using the SYBR Green PCR master mix Kit (TOYOBO, Japan). All quantization was normalized to the level of endogenous control GAPDH. The primer sequences for the SYBR green qPCR used were as follows: BRD2-F: 5′-[…]-3′ (SEQ ID NO:10); BRD2-R: 5′-[…]-3′ (SEQ ID NO:11); BRD3-F: 5′-[…]-3′ (SEQ ID NO:12); BRD3-R: 5′-[…]-[…]-3′ (SEQ ID NO:13); BRD4-F: 5′-[…]-GAG-3′ (SEQ ID NO:14); BRD4-F: 5′-[…]-3′ (SEQ ID NO: 15); RAC1-F: 5′-[…]-3′ (SEQ ID NO:16); RAC1-R: 5′-[…]-3′ (SEQ ID NO:17); FDFT1-F: 5′-ACTAT-[…]-3′ (SEQ ID NO:18); FDFT1-R: 5′-[…]-[…]-3′ (SEQ ID NO:19); DHCR24-F: 5′-[…]-GAGC-3′ (SEQ ID NO:20); DHCR24-R: 5′-[…]-3′(SEQ ID NO:21); DHCR7-F: 5′-[…]-3′ (SEQ ID NO: 22); DHCR7-R: 5′-[…]-3′ (SEQ ID NO:23); MVD-F: 5′-[…]-3′ (SEQ ID NO:24); MVD-R: 5′-CACAC-[…]-3′ (SEQ ID NO:25); PSA-F: 5′-[…]-[…]-3′ (SEQ ID NO:26); PSA-R: 5′-[…]-3′ (SEQ ID NO:27); TMPRSS2-F: 5′-[…]-3′ (SEQ ID NO: 28); TMPRSS2-R: 5′-[…]-3′ (SEQ ID NO:29); MYC-F: 5′-[…]-3′ (SEQ ID NO:30); MYC-R: 5′-CTTGT-[…]-3′ (SEQ ID NO:31); AR-F: 5′-[…]-TCACC-3′ (SEQ ID NO:32); AR-R: 5′-[…]-3′ (SEQ ID NO: 33); GAPDH-F: 5′-[…]-3′ (SEQ ID NO:34); and GAPDH-R: 5′-[…]-3′ (SEQ ID NO:35).
Cells were harvested and lysed by IP buffer (50 mM Tris-HCl, pH 7.4, 150 mM NaCl, 1% Triton X-100, 1% sodium deoxycholate and 1% protease inhibitor cocktails) on ice for more than 15 minutes. Cell lysate was centrifuged for 15 minutes at 13,000 rpm at 4° C., and the supernatant was quantified by BCA protein quantification assay. Equal amounts of protein sample were added into 4× sample buffer and boiled for 5 minutes. The sample was subjected to SDS-PAGE analysis and transferred to nitrocellulose membrane. The membrane was blocked by 5% milk for 1 hour at room temperature and incubated with primary antibody at 4° C. overnight. The next day, the membrane was washed three times with 1×TBST and incubated with horseradish peroxidase-conjugated secondary antibodies for 1 hour at room temperature. The protein bands were visualized by SuperSignal West Pico Stable Peroxide Solution (Thermo Fisher Scientific).
Total RNA was isolated using TRIzol reagent (Thermo Fisher Scientific). The NanoDrop 2000 spectrophotometer (Thermo Fisher Scientific) was used to assess RNA yield and quality. RNA was reversely transcribed using Superscript II reverse transcriptase (Thermo Fisher Scientific) following manufacturer's instructions. Quantitative real-time PCR was performed by mixing cDNA, gene-specific primers and IQ SYRB Green Supermix and detected by iCycler QTX detection system (Bio-Rad). The 2-ΔCt method was used to quantitate fold changes by normalizing to GAPDH.

[1] = control and SPOP-F133V C4-2 cells, JQ1 1 μM, 24 hours

In the case of `Cc1sc2c(c1C)C(c1ccc(Cl)cc1)=N[C@@H](CC(=O)OC(C)(C)C)c1nnc(C)n1-2` [JQ1], the ERG expression (C4-2 and 22Rv1 cells (JQ1 1 μM, 24 hours) and C4-2 tumors) is reported as “largely decreased”, the BRD4 protein level (C4-2 cells, JQ1) is reported as “increased” and the “DUB3 mRNA and protein levels” value (C4-2 cells, JQ1) is reported as “opposite; also recorded: upregulation”. The “NCOR2 protein and mRNA expression” value (C4-2 cells, dose- and time-dependent) was “decreased”, the “expression of cholesterol synthesis genes (FDFT1, DHCR24, DHCR7, MVD) and BRD4 binding at their promoters” value (SPOP-F133V C4-2 cells, JQ1 1 μM, 24 hours) was “not pronounced” and the “expression of cholesterol synthesis genes (FDFT1, DHCR24, DHCR7, MVD) and BRD4 binding at their promoters” value (control C4-2 cells, JQ1 1 μM, 24 hours) was “largely inhibited”. The AR protein level [1] was “largely decreased”, the AR transcriptional activity [1] was “largely decreased” and the MYC protein expression [1] was “markedly decreased”. The “expression of receptor tyrosine kinases HER3, IGF1R and INSR” value [1] was “no effect”.
